From patent USRE48461E1, “Modulation of androgen receptor expression” (Ionis Pharmaceuticals, Inc., priority 2012, dated 2021)
Oligonucleotides are written 5' to 3', each unit as a sugar letter and its base; * is a phosphorothioate linkage, no mark a phosphodiester; rarer units and linkages stand in square brackets, end groups in braces. Plain capitals give the bases only. l = locked nucleic acid (LNA); k = constrained ethyl (cEt); [5mC] = 5-methylcytosine; d = 2'-deoxy (DNA)

How the values were obtained:
KLK3 mRNA = KLK3 mRNA (AR target gene) in C4-2B MR cells; format: cell-based, human
AR mRNA [1] = test: Dose-dependent antisense inhibition of human AR in HuVEC cells (electroporation, qRT-PCR RTS3559, IC50); format: cell-based; settings: HuVEC, ~16 h, Table 4
How it was run: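 HuVEC cells dosed with antisense oligonucleotides by electroporation and treated approximately 16 hours. AR mRNA quantified by real-time qPCR with primer probe set RTS3559 and normalised to total RNA by RIBOGREEN; IC50 from dose-response.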

AR mRNA [2] = test: Antisense inhibition of human AR in HuVEC cells, single concentration (electroporation, qRT-PCR RTS3559); format: cell-based; settings: 500 nM ASO, electroporation, ~24 h, Table 2
How it was run: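 AR mRNA levels were measured with human primer-probe set RTS3559 and adjusted for total RNA (RIBOGREEN). Cells were HuVEC, with each antisense oligonucleotide delivered by electroporation at one concentration.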

total AR mRNA = test: Total (full-length) AR mRNA in C4-2B MR cells, free uptake; format: cell-based, human; settings: free uptake, 24 hrs
Experimental: Cells were plated at a density of 40,000 cells per well in 96-well plates and cultured in RPMI1640 medium with 10% fetal bovine serum. […] ISIS 549372, ISIS 549458, ISIS 549434, and ISIS 554221 were each added at 0.04 μM, 0.20 μM, 1.00 μM, and 5.00 μM concentrations of antisense oligonucleotide to culture media for free uptake by the cells. […] After a treatment period of 24 hrs, total AR mRNA levels were measured by quantitative real-time PCR using primer probe set RTS3559.

C4-2B MR cells = test: Proliferation of MDV3100-resistant C4-2B cells (CellTiter 96); format: cell-based, human; settings: 6 days
Experimental: ISIS 549372, ISIS 549434, ISIS 549458, and ISIS 554221 were each added to the culture media at 0.04 μM, 0.20 μM, 1.00 μM, and 5.00 μM concentration of antisense oligonucleotide. ISIS 347526 was included as a negative control. After a treatment period of 6 days, the proliferative capacity of the cancer cells was measured with using CellTiter 96® AQueous One Solution Cell Proliferation kit (Promega), following the manufacturer's instructions. Results are presented in Table 41 as percent inhibition of proliferation, relative to non-treated cells.

KLK2 mRNA = KLK2 mRNA (AR target gene) in C4-2B MR cells; format: cell-based, human
TMPRSS2 mRNA = TMPRSS2 mRNA levels in LMR20 cells; format: cell-based, human; settings: LMR20 cells; for TMPRSS2 mRNA levels (% baseline value) after treatment with DHT: DHT 10 nM 72 hrs; for TMPRSS2 mRNA levels (% baseline value) after treatment with R1881: R1881 10 nM 72 hrs; for TMPRSS2 mRNA levels (% baseline value) of cells without AR agonist treatment: no AR agonist
Experimental: (§1) LMR20 cells were plated at 1,500 cells per well in phenol red-free medium with CSS.

AR mRNA [3] = test: AR mRNA levels in LMR20 cells (with/without DHT or R1881); format: cell-based, human; settings: LMR20 cells; for AR mRNA levels (% baseline value) after treatment with DHT: DHT 10 nM 72 hrs; for AR mRNA levels (% baseline value) after treatment with R1881: R1881 10 nM 72 hrs; for AR mRNA levels (% baseline value) of cells without AR agonist treatment: no AR agonist
Experimental: as §1

[4] = tested on: prostate-specific antigen (PSA) mRNA; test: PSA mRNA levels in LMR20 cells; format: cell-based, human; settings: LMR20 cells; for PSA mRNA levels (% baseline value) after treatment with DHT: DHT 10 nM 72 hrs; for PSA mRNA levels (% baseline value) after treatment with R1881: R1881 10 nM 72 hrs; for PSA mRNA levels (% baseline value) of cells without AR agonist treatment: no AR agonist
Experimental: LMR20 cells were plated at 1,500 cells per well in phenol red-free medium with CSS. […] Results are presented in Tables 43-45 as mRNA levels expressed as a percentage of the baseline values. mRNA levels may be lowered or increased after treatment.

AR mRNA [5] = test: AR mRNA in LnCaP cells by free uptake (hAR_LTS00943); format: cell-based, human; settings: 24 hrs
Experimental: Cells were plated at a concentration of 4,000 cells/well in 96-well plates. ISIS oligonucleotides, specified in Table 68, were added individually at 0.02 μM, 0.10 μM, 0.50 μM, 2.50 μM, or 10.00 μM. After an incubation period of 24 hrs, mRNA levels were measured using primer probe set hAR_LTS00943.

## 549434 (k[5mC]*kT*kA*dA*dA*d[5mC]*dT*dT*d[5mC]*d[5mC]*d[5mC]*dG*dT*kG*kG*k[5mC]) [compound 549434]
KLK3 mRNA; 0.04 μM
  Percent inhibition of KLK3 mRNA in C4-2B MR cells: 10%
KLK3 mRNA; 0.20 μM
  Percent inhibition of KLK3 mRNA in C4-2B MR cells: 47%
KLK3 mRNA; 1.00 μM
  Percent inhibition of KLK3 mRNA in C4-2B MR cells: 42%
KLK3 mRNA; 5.00 μM
  Percent inhibition of KLK3 mRNA in C4-2B MR cells: 64%
AR mRNA [1]; 55.6 nM
  percent inhibition of AR: 38%
AR mRNA [1]; 166.7 nM
  percent inhibition of AR: 60%
AR mRNA [1]; 500.0 nM
  percent inhibition of AR: 86%
AR mRNA [1]; 1500.0 nM
  percent inhibition of AR: 96%
AR mRNA [1]
  IC50: 85 nM
AR mRNA [2]
  % inhibition: 96%
Total AR mRNA; 0.04 μM
  Percent inhibition of full-length AR mRNA in C4-2B MR cells: 9%
Total AR mRNA; 0.20 μM
  Percent inhibition of full-length AR mRNA in C4-2B MR cells: 36%
Total AR mRNA; 1.00 μM
  Percent inhibition of full-length AR mRNA in C4-2B MR cells: 66%
Total AR mRNA; 5.00 μM
  Percent inhibition of full-length AR mRNA in C4-2B MR cells: 88%
C4-2B MR cells; 0.04 μM
  Percent inhibition of C4-2B MR cell proliferation: 0%
C4-2B MR cells; 0.20 μM
  Percent inhibition of C4-2B MR cell proliferation: 0%
C4-2B MR cells; 1.00 μM
  Percent inhibition of C4-2B MR cell proliferation: 21%
C4-2B MR cells; 5.00 μM
  Percent inhibition of C4-2B MR cell proliferation: 22%
KLK2 mRNA; 0.04 μM
  Percent inhibition of KLK2 mRNA in C4-2B MR cells: 5%
KLK2 mRNA; 0.20 μM
  Percent inhibition of KLK2 mRNA in C4-2B MR cells: 27%
KLK2 mRNA; 1.00 μM
  Percent inhibition of KLK2 mRNA in C4-2B MR cells: 49%
KLK2 mRNA; 5.00 μM
  Percent inhibition of KLK2 mRNA in C4-2B MR cells: 68%

## 554221 (ACCAAGTTTCTTCAGC; sugars from the 5' end l3 d10 l3, all phosphorothioate, methylation of C not given here) [compound 554221]
TMPRSS2 mRNA; ASO 0.04 μM
  TMPRSS2 mRNA levels (% baseline value) after treatment with DHT: 121 % baseline value
  TMPRSS2 mRNA levels (% baseline value) after treatment with R1881: 136 % baseline value
  TMPRSS2 mRNA levels (% baseline value) of cells without AR agonist treatment: 95 % baseline value
TMPRSS2 mRNA; ASO 0.20 μM
  TMPRSS2 mRNA levels (% baseline value) after treatment with DHT: 118 % baseline value
  TMPRSS2 mRNA levels (% baseline value) after treatment with R1881: 134 % baseline value
  TMPRSS2 mRNA levels (% baseline value) of cells without AR agonist treatment: 117 % baseline value
TMPRSS2 mRNA; ASO 1.0 μM
  TMPRSS2 mRNA levels (% baseline value) after treatment with DHT: 122 % baseline value
  TMPRSS2 mRNA levels (% baseline value) after treatment with R1881: 125 % baseline value
  TMPRSS2 mRNA levels (% baseline value) of cells without AR agonist treatment: 77 % baseline value
TMPRSS2 mRNA; ASO 5.0 μM
  TMPRSS2 mRNA levels (% baseline value) after treatment with DHT: 114 % baseline value
  TMPRSS2 mRNA levels (% baseline value) after treatment with R1881: 122 % baseline value
  TMPRSS2 mRNA levels (% baseline value) of cells without AR agonist treatment: 73 % baseline value
KLK3 mRNA; 0.04 μM
  Percent inhibition of KLK3 mRNA in C4-2B MR cells: 0%
KLK3 mRNA; 0.20 μM
  Percent inhibition of KLK3 mRNA in C4-2B MR cells: 0%
KLK3 mRNA; 1.00 μM
  Percent inhibition of KLK3 mRNA in C4-2B MR cells: 47%
KLK3 mRNA; 5.00 μM
  Percent inhibition of KLK3 mRNA in C4-2B MR cells: 56%
AR mRNA [3]; ASO 0.04 μM
  AR mRNA levels (% baseline value) after treatment with DHT: 137 % baseline value
  AR mRNA levels (% baseline value) after treatment with R1881: 131 % baseline value
  AR mRNA levels (% baseline value) of cells without AR agonist treatment: 124 % baseline value
AR mRNA [3]; ASO 0.20 μM
  AR mRNA levels (% baseline value) after treatment with DHT: 135 % baseline value
  AR mRNA levels (% baseline value) after treatment with R1881: 133 % baseline value
  AR mRNA levels (% baseline value) of cells without AR agonist treatment: 140 % baseline value
AR mRNA [3]; ASO 1.0 μM
  AR mRNA levels (% baseline value) after treatment with DHT: 136 % baseline value
  AR mRNA levels (% baseline value) after treatment with R1881: 124 % baseline value
  AR mRNA levels (% baseline value) of cells without AR agonist treatment: 132 % baseline value
AR mRNA [3]; ASO 5.0 μM
  AR mRNA levels (% baseline value) after treatment with DHT: 100 % baseline value
  AR mRNA levels (% baseline value) after treatment with R1881: 99 % baseline value
  AR mRNA levels (% baseline value) of cells without AR agonist treatment: 98 % baseline value
Total AR mRNA; 0.04 μM
  Percent inhibition of full-length AR mRNA in C4-2B MR cells: 0%
Total AR mRNA; 0.20 μM
  Percent inhibition of full-length AR mRNA in C4-2B MR cells: 0%
Total AR mRNA; 1.00 μM
  Percent inhibition of full-length AR mRNA in C4-2B MR cells: 0%
Total AR mRNA; 5.00 μM
  Percent inhibition of full-length AR mRNA in C4-2B MR cells: 23%
C4-2B MR cells; 0.04 μM
  Percent inhibition of C4-2B MR cell proliferation: 11%
C4-2B MR cells; 0.20 μM
  Percent inhibition of C4-2B MR cell proliferation: 12%
C4-2B MR cells; 1.00 μM
  Percent inhibition of C4-2B MR cell proliferation: 0%
C4-2B MR cells; 5.00 μM
  Percent inhibition of C4-2B MR cell proliferation: 24%
[4]; ASO 0.04 μM
  PSA mRNA levels (% baseline value) after treatment with DHT: 97 % baseline value
  PSA mRNA levels (% baseline value) after treatment with R1881: 100 % baseline value
  PSA mRNA levels (% baseline value) of cells without AR agonist treatment: 106 % baseline value
[4]; ASO 0.20 μM
  PSA mRNA levels (% baseline value) after treatment with DHT: 86 % baseline value
  PSA mRNA levels (% baseline value) after treatment with R1881: 93 % baseline value
  PSA mRNA levels (% baseline value) of cells without AR agonist treatment: 118 % baseline value
[4]; ASO 1.0 μM
  PSA mRNA levels (% baseline value) after treatment with DHT: 64 % baseline value
  PSA mRNA levels (% baseline value) after treatment with R1881: 80 % baseline value
  PSA mRNA levels (% baseline value) of cells without AR agonist treatment: 58 % baseline value
[4]; ASO 5.0 μM
  PSA mRNA levels (% baseline value) after treatment with DHT: 64 % baseline value
  PSA mRNA levels (% baseline value) after treatment with R1881: 57 % baseline value
  PSA mRNA levels (% baseline value) of cells without AR agonist treatment: 87 % baseline value
AR mRNA [5]; 0.02 μM
  Percent inhibition of AR mRNA: 0%
AR mRNA [5]; 0.1 μM
  Percent inhibition of AR mRNA: 0%
AR mRNA [5]; 0.5 μM
  Percent inhibition of AR mRNA: 0%
AR mRNA [5]; 10 μM
  Percent inhibition of AR mRNA: 17%
KLK2 mRNA; 0.04 μM
  Percent inhibition of KLK2 mRNA in C4-2B MR cells: 24%
KLK2 mRNA; 0.20 μM
  Percent inhibition of KLK2 mRNA in C4-2B MR cells: 25%
KLK2 mRNA; 1.00 μM
  Percent inhibition of KLK2 mRNA in C4-2B MR cells: 56%
KLK2 mRNA; 5.00 μM
  Percent inhibition of KLK2 mRNA in C4-2B MR cells: 66%
